Experimental data taken from US20260226048A1, “MULTI-CYCLIC IRAK AND FLT3 INHIBITING COMPOUNDS AND USES THEREOF” (CHILDREN'S HOSPITAL MEDICAL CENTER, priority 2023, published 2026).
Read-outs that look alike come from different tables or passages of the source.

Experiments:
IRAK1 = target: T1, IRAK1 (Homo sapiens, UniProt P51617); assay: RBC HotSpot Kinase Assay, IRAK1; type: biochemical; details: isolated kinase enzyme, 33P-ATP, P81 filter-binding
T1 construct: purchased Reaction Biology (RBC HotSpot)
Excerpt: (§1) This assay uses the isolated kinase enzyme. […] Unlike kinase binding assays that measure competition for ATP, the HotSpot Kinase Assay is a functional assay that measures catalytic activity; as such it measures relative functional potency regardless of the mechanism of enzyme inhibition. This assay uses the form of the various enzymes that are easiest to express, which may not necessarily be the form of the enzyme that exist in the cell. (Sometimes the carboxy terminus has been truncated to aid in expression, or, if it is a receptor kinase, the enzyme itself is isolated from the other parts of the receptor that are involved in regulating kinase activity.)
(§2) The reagent used was as follows: Base Reaction buffer; 20 mM Hepes (pH 7.5), 10 mM MgCl2, 1 mM EGTA, 0.01% Brij35, 0.02 mg/ml BSA, 0.1 mM Na3VO4, 2 mM DTT, 1% DMSO. Required cofactors were added individually to each kinase reaction.

MOLM14 D835Y cells = assay: MOLM14 D835Y cell viability assay (Cell Titer Glo); type: cell-based; details: cell viability, Cell Titer Glo, 48 hours, read-out: MOLM14 D835Y IC50
Procedure: Both cell lines have activated FLT3 receptors, each of which carry additional resistance mutations in the kinase domain (D835Y and F691L, respectively).
For viability/cytotoxicity assessments, cells were seeded into 1536-well white polystyrene tissue culture-treated Greiner plates using a Multidrop Combi dispenser (ThermoFisher), in final volume 5 μL of growth media per well, at a density of 1000 cells per well. […] Plates were incubated for 48 hours at standard incubator conditions covered by a stainless steel gasketed lid to prevent evaporation. 48 hours post compound addition, 3 μL of Cell Titer Glo (Promega) were added to each well and plates were incubated at room temperature for 15 minutes with the stainless-steel lid in place. Luminescence readings were taken using a Viewlux imager (PerkinElmer) with a 2 second exposure time per plate.

IRAK4 = target: T2, IRAK4 (Homo sapiens, UniProt Q9NWZ3); assay: RBC HotSpot Kinase Assay, IRAK4; type: biochemical; set-up: purchased Reaction Biology (RBC HotSpot); details: isolated kinase enzyme, 33P-ATP, P81 filter-binding
T2 sequence (Q9NWZ3 1-460): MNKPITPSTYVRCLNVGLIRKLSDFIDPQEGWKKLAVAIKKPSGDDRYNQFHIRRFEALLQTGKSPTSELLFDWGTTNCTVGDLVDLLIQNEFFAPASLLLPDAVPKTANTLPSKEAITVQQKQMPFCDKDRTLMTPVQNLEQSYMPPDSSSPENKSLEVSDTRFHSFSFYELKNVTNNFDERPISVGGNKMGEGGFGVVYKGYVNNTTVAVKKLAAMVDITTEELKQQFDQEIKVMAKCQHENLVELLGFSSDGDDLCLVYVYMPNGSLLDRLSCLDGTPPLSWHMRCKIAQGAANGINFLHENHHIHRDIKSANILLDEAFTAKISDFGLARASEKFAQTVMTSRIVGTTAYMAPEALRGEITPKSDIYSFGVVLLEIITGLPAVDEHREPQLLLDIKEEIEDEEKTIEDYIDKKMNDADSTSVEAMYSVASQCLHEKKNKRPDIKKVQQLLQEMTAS
Excerpt: as §1, with “enzyme. This assay is very useful for determining competition of the inhibitor for ATP and/or substrates and for measuring the kinetics of enzyme inhibition.” for “enzyme.”
as §2
The reaction procedure was as follows: • 1) Substrates were prepared in freshly prepared Reaction Buffer. • 2) Any required cofactors were delivered to the substrate solution above. • 3) Kinase was delivered into the substrate solution and gently mixed. • 4) Compounds were delivered in 1000A DM into the kinase reaction mixture by Acoustic technology (Echo550; nanoliter range), followed by incubation for 20 min at room temp. • 5) 33P-ATP was delivered into the reaction mixture to initiate the reaction. • 6) The mixture was incubated for 2 hours at room temperature. • 7) Kinase activity was detected by P81 filter-binding method.

FLT3 = target: T3, FLT3 (Homo sapiens, UniProt P36888); assay: RBC HotSpot Kinase Assay, FLT3; type: biochemical; set-up: purchased Reaction Biology (RBC HotSpot); details: isolated kinase enzyme, 33P-ATP, P81 filter-binding
T3 sequence (P36888 27-993): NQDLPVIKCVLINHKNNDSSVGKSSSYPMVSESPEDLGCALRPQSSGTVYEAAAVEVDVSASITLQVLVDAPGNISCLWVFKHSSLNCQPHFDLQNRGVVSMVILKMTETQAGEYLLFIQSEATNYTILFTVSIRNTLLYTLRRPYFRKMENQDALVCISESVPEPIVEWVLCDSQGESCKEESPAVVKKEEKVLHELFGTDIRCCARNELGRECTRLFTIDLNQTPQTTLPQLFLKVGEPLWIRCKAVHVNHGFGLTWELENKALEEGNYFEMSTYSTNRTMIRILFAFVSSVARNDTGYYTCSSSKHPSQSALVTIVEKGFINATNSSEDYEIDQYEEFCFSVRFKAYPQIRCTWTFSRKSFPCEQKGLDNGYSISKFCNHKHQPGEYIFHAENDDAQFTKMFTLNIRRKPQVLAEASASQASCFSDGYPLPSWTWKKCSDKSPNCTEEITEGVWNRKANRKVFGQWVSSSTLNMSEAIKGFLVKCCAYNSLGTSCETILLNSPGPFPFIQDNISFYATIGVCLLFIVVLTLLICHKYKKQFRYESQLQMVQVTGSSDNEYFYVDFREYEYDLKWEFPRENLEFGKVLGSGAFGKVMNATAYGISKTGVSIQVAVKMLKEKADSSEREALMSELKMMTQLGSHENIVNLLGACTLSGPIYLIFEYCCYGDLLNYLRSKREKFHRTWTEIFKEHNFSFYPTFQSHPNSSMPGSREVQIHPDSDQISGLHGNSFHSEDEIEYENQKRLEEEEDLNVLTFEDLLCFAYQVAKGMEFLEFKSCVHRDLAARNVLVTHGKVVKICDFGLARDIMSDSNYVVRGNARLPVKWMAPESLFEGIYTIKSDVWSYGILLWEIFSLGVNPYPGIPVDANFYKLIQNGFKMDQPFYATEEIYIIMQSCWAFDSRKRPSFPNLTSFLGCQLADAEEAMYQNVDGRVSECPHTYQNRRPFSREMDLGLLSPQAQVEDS
Excerpt: as §1, §2

T1 sequence (P51617 whole entry): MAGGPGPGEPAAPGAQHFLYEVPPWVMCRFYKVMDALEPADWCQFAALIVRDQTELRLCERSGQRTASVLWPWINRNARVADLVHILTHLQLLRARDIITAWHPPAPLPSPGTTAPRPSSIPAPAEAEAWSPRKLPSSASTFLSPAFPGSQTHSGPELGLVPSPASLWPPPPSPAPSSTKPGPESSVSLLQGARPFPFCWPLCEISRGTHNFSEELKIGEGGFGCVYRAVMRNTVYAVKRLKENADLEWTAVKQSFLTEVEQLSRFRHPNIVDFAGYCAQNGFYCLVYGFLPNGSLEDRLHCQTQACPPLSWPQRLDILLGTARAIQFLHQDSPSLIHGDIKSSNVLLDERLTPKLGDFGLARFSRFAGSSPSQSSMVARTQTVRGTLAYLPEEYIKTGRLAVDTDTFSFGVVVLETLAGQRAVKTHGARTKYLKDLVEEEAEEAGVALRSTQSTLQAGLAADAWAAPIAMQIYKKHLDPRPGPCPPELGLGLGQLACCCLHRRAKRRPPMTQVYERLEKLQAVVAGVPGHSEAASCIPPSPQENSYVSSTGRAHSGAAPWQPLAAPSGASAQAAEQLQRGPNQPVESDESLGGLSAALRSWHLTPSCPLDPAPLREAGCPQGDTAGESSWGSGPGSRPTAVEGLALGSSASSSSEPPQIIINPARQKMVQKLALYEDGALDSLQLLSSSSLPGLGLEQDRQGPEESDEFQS

SMILES	IC50 (IRAK1) [nM]	IC50 (MOLM14 D835Y cells) [nM]	IC50 (IRAK4) [nM]	IC50 (FLT3) [nM]	IC50 (MOLM14 D835Y cells; Homo sapiens, MOLM-14, 48 h) [nM]
CC(O)(c1ccc2ncc(-c3cncc(N[C@H]4CNCC[C@@H]4F)n3)n2c1)C(F)(F)F (single isomer, unassigned) [Compound 33a]	9	65	0.8	0.7	–
FC(F)COc1cc2ncc(-c3ccnc(N[C@@H]4CCCNC4)n3)n2nc1C1CC1 [Compound 6a, (R)-4-(6-cyclopropyl-7-(2,2-difluoroethoxy)imidazo[1,2-b]pyridazin-3-yl)-N-(piperidin-3-yl)pyrimidin-2-amine]	133	–	3	< 0.5	9
CC(O)(c1ccc2ncc(-c3nc(N[C@H]4CNC[C@@H]4F)ncc3F)n2c1)C(F)(F)F (single isomer, unassigned) [Compound 36a]	4	–	2	< 0.5	41
CC(O)(c1ccc2ncc(-c3nc(N[C@@H]4CCCNC4)ncc3F)n2c1)C(F)(F)F (single isomer, unassigned) [Compound 39a]	2	32	1	< 0.5	–
CC(C)(O)c1ccc2ncc(-c3nc(N[C@H]4CNC[C@@H]4F)ncc3F)n2c1 [Compound 47a, 2-(3-(5-fluoro-2-(((3S,4S)-4-fluoropyrrolidin-3-yl)amino)pyrimidin-4-yl)imidazo[1,2-a]pyridin-6-yl)propan-2-ol]	13	–	1	< 0.5	46
COc1cc2ncc(-c3ccnc(N[C@H]4CNCC[C@@H]4F)n3)n2nc1C(C)(C)O [Compound 40a, 2-(3-(2-(((3S,4S)-4-fluoropiperidin-3-yl)amino)pyrimidin-4-yl)-7-methoxyimidazo[1,2-b]pyridazin-6-yl)propan-2-ol]	1130	–	76	3	115
COc1cc2ncc(-c3ccnc(N[C@@H]4CCCNC4)n3)n2nc1N1CC(F)(F)C1 [Compound 17a, (R)-4-(6-(3,3-difluoroazetidin-1-yl)-7-methoxyimidazo[1,2-b]pyridazin-3-yl)-N-(piperidin-3-yl)pyrimidin-2-amine]	1420	–	215	4	182
FC(F)COc1cc2ncc(-c3ccnc(N[C@H]4CNC[C@@H]4F)n3)n2nc1C1CC1 [Compound 5a, 4-(6-cyclopropyl-7-(2,2-difluoroethoxy)imidazo[1,2-b]pyridazin-3-yl)-N-((3S,4S)-4-fluoropyrrolidin-3-yl)pyrimidin-2-amine]	29	–	0.9	< 0.5	29
COc1cc2ncc(-c3ccnc(N[C@@H]4CCCNC4)n3)n2nc1C(C)(C)O [Compound 42a, (R)-2-(7-methoxy-3-(2-(piperidin-3-ylamino)pyrimidin-4-yl)imidazo[1,2-b]pyridazin-6-yl)propan-2-ol]	3250	–	496	10	363
COc1cc2ncc(-c3ccnc(N[C@H]4CNC[C@@H]4F)n3)n2nc1C(C)(C)O [Compound 41a, 2-(3-(2-(((3S,4S)-4-fluoropyrrolidin-3-yl)amino)pyrimidin-4-yl)-7-methoxyimidazo[1,2-b]pyridazin-6-yl)propan-2-ol]	1590	–	36	1	289
FC(F)COc1cc2ncc(-c3cncc(N[C@H]4CNC[C@@H]4F)n3)n2nc1C1CC1 [Compound 8a, 6-(6-cyclopropyl-7-(2,2-difluoroethoxy)imidazo[1,2-b]pyridazin-3-yl)-N-((3S,4S)-4-fluoropyrrolidin-3-yl)pyrazin-2-amine]	34	–	2	< 0.5	91
COc1cc2ncc(-c3ccnc(N[C@H]4CNCC[C@@H]4F)n3)n2nc1N1CC(F)(F)C1 [Compound 18a, 4-(6-(3,3-difluoroazetidin-1-yl)-7-methoxyimidazo[1,2-b]pyridazin-3-yl)-N-((3S,4S)-4-fluoropiperidin-3-yl)pyrimidin-2-amine]	226	–	15	< 0.5	51
COc1cc2ncc(-c3cncc(N[C@H]4CNCC[C@@H]4F)n3)n2nc1C1CC(F)(F)C1 [Compound 73a, 6-(6-(3,3-difluorocyclobutyl)-7-methoxyimidazo[1,2-b]pyridazin-3-yl)-N-((3S,4S)-4-fluoropiperidin-3-yl)pyrazin-2-amine]	129	–	12	< 0.5	204
F[C@H]1CNC[C@@H]1Nc1nccc(-c2cnc3cc(OC4CC4)c(C4CC4)nn23)n1 [Compound 10a, 4-(7-cyclopropoxy-6-cyclopropylimidazo[1,2-b]pyridazin-3-yl)-N-((3S,4S)-4-fluoropyrrolidin-3-yl)pyrimidin-2-amine]	26	–	3	< 0.5	91
COc1cc2ncc(-c3cncc(N[C@@H]4CCCNC4)n3)n2nc1C1CC(F)(F)C1 [Compound 72a, (R)-6-(6-(3,3-difluorocyclobutyl)-7-methoxyimidazo[1,2-b]pyridazin-3-yl)-N-(piperidin-3-yl)pyrazin-2-amine]	127	–	60	0.8	289
FC(F)COc1cc2ncc(-c3cncc(N[C@@H]4CCCNC4)n3)n2nc1C1CC1 [Compound 9a, (R)-6-(6-cyclopropyl-7-(2,2-difluoroethoxy)imidazo[1,2-b]pyridazin-3-yl)-N-(piperidin-3-yl)pyrazin-2-amine]	199	–	11	< 0.5	41
